From patent publication US11944609B1, “Antifungal ionic liquid and Amphotericin B combination” (KING ABDULAZIZ UNIVERISTY, priority 2023, dated 2024)

Tests used:
[1] = Density measurement (Density Meter DMA 501); type: physicochemical; details: 298K, atmospheric pressure
Protocol: The uncertainties in the density measurements, considering the sample handling and purity, are determined to be with an accuracy of 0.0001 g/cm3.

C. auris [2] = assay: Checkerboard microdilution assay of ionic liquids with amphotericin B, with varied ratio isobolograms; type: cell-based, Candida auris; details: for MIC of ionic liquids in combination with AmB: 1:1 combination with amphotericin B; for Average MIC values of individual compounds: alone; for FICb: fractional inhibitory concentration of amphotericin B; for FICa: fractional inhibitory concentration of the ionic liquid; for Type of interaction / ΣFIC: ionic liquid + amphotericin B; for Decrease in the MIC when used together: IPC8 + amphotericin B combination versus alone
Protocol: The type of interaction between ionic liquids and amphotericin B against C. auris was evaluated by the checkerboard microdilution method. The concentrations of ionic liquids used ranged from 5000-0.61 μg/mL, and amphotericin B was 64-0.06 μg/mL. Subsequently, equal volumes (50 μL) of ionic liquids and amphotericin B were dispensed into pre-determined wells, which were further supplemented with C. auris cells (0.5×103-2.5×10^3 cells/mL; 100 μL) followed by incubation at 35±2° C. for 24 h. Also, each experiment included DMSO (1%) was added as negative control along with growth and sterility controls. […] The interaction between the test compounds and amphotericin B was deduced according to the calculated coefficient of the sum of fractional inhibitory concentrations (ΣFIC).
[formula] MICa=MIC of the ionic liquids; MICb=MIC of amphotericin B. The FICI values were interpreted as ΣFIC≤0.5, synergy; ΣFIC>0.5-≤1, additivity; ΣFIC>1-<2, no interaction; ΣFIC≥2, antagonism.

[3] = Viscosity measurement (RHEOSENSE MicroVisc viscometer); type: physicochemical; details: 298K, atmospheric pressure
C. auris [4] = assay: Antifungal susceptibility by broth microdilution (MIC) and SDA plating (MFC); type: cell-based, Candida auris; details: for Average MIC value / Average MFC value: compound alone, C. auris (2921); for Average MIC value: concentration giving 100% inhibition; for Average MFC value: no visible colonies on SDA after 24 h
Protocol: In this work, the antifungal activity of the ionic liquids (IPC4-IPC12) against C. auris was investigated in terms of minimum inhibitory concentration (MIC) and minimum fungicidal concentration (MFC). A stock solution of 20 mg/mL was prepared in 1% Dimethyl sulfoxide (DMSO; Sigma-Aldrich, USA). Fourteen different concentrations of test ILs were prepared by performing serial dilution in a flat bottom 96-well microtiter plate, followed by the addition of C. auris cells (0.5×103-2.5×10^3 cells/mL; 100 μL) which gave us the final test concentrations of ILs (5000-0.61 μg/mL). Amphotericin B was used as a positive control, 1% DMSO as a negative control, and drug-free control was used in each set of experiments. The optical density was determined at a wavelength of 600 nm using SpectraMax iD3 multi-mode microplate reader, and the concentration resulting in 100% inhibition was picked up as the MIC value. Post-MIC evaluation, MFC was estimated by administrating 10 μL of samples from the wells displaying MIC and beyond on a Sabouraud Dextrose Agar (SDA) plate. The plates were incubated at 35±2° C. for 24 h, and the concentration resulting in no visible colonies was documented as MFC value for respective ionic liquids.

[5] = tested on: horse red blood cells (H-RBC); assay: Haemolytic activity (cytotoxicity on red blood cells); type: cell-based
Protocol: The cytotoxicity of IPC8 on horse red blood cells (H-RBC) was checked by conducting a cytotoxicity assay. Briefly, the RBC was separated from the horse blood and was thoroughly washed with NaCl (150 mM) solution. Thereafter, RBC suspension (2%) was prepared in sterile PBS, followed by the addition (180 μL) to a microcentrifuge tube containing […] ([…]), the microcentrifuge tubes were kept aside for 45 min at 37° C. followed by centrifugation at 1300×g for 5 min. The supernatant (100 μL) was collected in a separate tube and mixed with 900 μL of sterile PBS. Aliquots (200 μL) were taken from each dilution and transferred to a 96-well flat bottom microtiter plate, and optical density was measured at 540 nm (SpectraMax iD3 multi-mode microplate reader, Molecular Devices). The negative control contained RBC suspension in PBS, and the positive control had RBC treated with 0.1% Triton X-100. To calculate the percentage of hemolysis below formula was used.

C. auris [6] = assay: In vitro time-kill assay; type: cell-based, Candida auris; details: for Average log10 CFU/mL: healthy control 7.78
Protocol: The assay for determining the time-kill kinetics values of IPC8 against C. auris was carried out at various concentrations (½, 1, 2, and 4 times the MIC) against C. auris. The C. auris cell suspension with a starting inoculum of around 1×105 to 5×10^5 CFU/mL was incubated with/without IPC8 at 35° C.±2° C. and 150 rpm. Aliquots (100 μL) were taken out at predetermined time points (0, 2, 4, 6, 8, 12, and 24 h), and for determining CFU counts, the aliquots were serially diluted in sterile water and plate (20 μL) on SDA growth medium. The plates were incubated at 35° C.±2° C. for 24 to 48 h, and the number of colonies was counted using a colony counter. The experiment was performed in duplicate, and the result is articulated in log 10 viable CFU/mL.

[7] = nine ratios of IPC8 and amphotericin B (10:90 to 90:10), isobolograms

Row | Compound | Density [1] | MIC of ionic liquids in combination with AmB (C. auris [2]) | Average MIC values of individual compounds (C. auris [2]) | FICb (C. auris [2]) | FICa (C. auris [2]) | Type of interaction (C. auris [2]) | ΣFIC (C. auris [2]) | Viscosity [3] | Average MIC value (C. auris [4]) | Average MFC value (C. auris [4]) | other results
1 | CCCC[n+]1ccn2ccccc21.[Br-] [IPC4, 1-Butylimidazo[1,2-a] pyridinium bromide] | 1.0310 g/mL | 39.06 µg/mL | 78.12 µg/mL | 1.0 | 0.5 | No INT (ΣFIC>1-<2, no interaction) | 1.5 | 4.14 mPa | 78.12 µg/mL | 312.5 µg/mL | –
2 | CCCCCCCC[n+]1ccn2ccccc21.[Br-] [IPC8, 1-Octylimidazo[1,2-a] pyridinium bromide] | 1.0094 g/mL | 1.22 µg/mL | 4.88 µg/mL | 0.125 | 0.25 | SYN (ΣFIC≤0.5, synergy) | 0.38 | 25.21 mPa | 4.88 µg/mL | 9.76 µg/mL | Haemolysis ([5]; 156.25 μg/mL): 16.14%; Time to candidacidal endpoint (C. auris [6]; 2 times MIC): 12 h; Time to 50% reduction in the log10 CFU/mL from the inoculum (C. auris [6]; MIC): 12 h; Average log10 CFU/mL (C. auris [6]; after 24 hr exposure to MIC): 4.67 log10 CFU/mL; Average log10 CFU/mL (C. auris [6]; after 24 hr exposure to ½ MIC): 5.8 log10 CFU/mL; Time to 50% reduction in the number of CFU (C. auris [6]; four times MIC): 2 h; Time to candidacidal endpoint (C. auris [6]; four times MIC): 24 h; Nature of activity in time-kill curve (C. auris [6]; kill of ≥log 3, concentration- and time-dependent): fungicidal; Time to 50% reduction in the number of CFU (C. auris [6]; two times MIC): 4 h; Decrease in the MIC when used together (C. auris [2]): four-fold; Number of ratios (out of nine) with additive interaction (C. auris [2]; [7]): two; Number of ratios (out of nine) with strong synergistic effect (C. auris [2]; [7]): seven; Fold lower MIC and MFC values compared to other tested ionic liquids (C. auris [4]; IPC8 versus other ionic liquids): 3 to 8 fold
3 | triton X-100 [reference compound] | – | – | – | – | – | – | – | – | – | – | Haemolysis (observation) [5]: clear haemolysis
4 | C[C@@H]1[C@H](O)[C@@H](C)/C=C/C=C/C=C/C=C/C=C/C=C/C=C/[C@H](O[C@@H]2O[C@H](C)[C@@H](O)[C@H](N)[C@@H]2O)C[C@@H]2O[C@](O)(C[C@@H](O)C[C@@H](O)[C@H](O)CC[C@@H](O)C[C@@H](O)CC(=O)O[C@H]1C)C[C@H](O)[C@H]2C(=O)O [Amphotericin B] | – | – | 2.0 µg/mL | – | – | – | – | – | 2.0 µg/mL | 4.0 µg/mL | Decrease in the MIC when used together (C. auris [2]): four-fold; Average MIC value (C. auris [4]; listed as amphotericin B): 2 µg/mL; Average MFC value (C. auris [4]; listed as amphotericin B): 4 µg/mL
5 | CCCCCC[n+]1ccn2ccccc21.[Br-] [IPC6, 1-Hexylimidazo[1,2-a] pyridinium bromide] | 1.0102 g/mL | 9.76 µg/mL | 39.06 µg/mL | 0.25 | 0.24 | SYN (ΣFIC≤0.5, synergy) | 0.49 | 14.7 mPa | 39.06 µg/mL | 78.12 µg/mL | –
6 | CCCCCCCCCCCC[n+]1ccn2ccccc21.[Br-] [IPC12, 1-Dodecylimidazo[1,2-a] pyridinium bromide] | 1.0049 g/mL | 156.25 µg/mL | 312.5 µg/mL | 0.5 | 0.25 | ADD (ΣFIC>0.5-≤1, additivity) | 0.75 | 28.60 mPa | 312.5 µg/mL | 625 µg/mL | –
7 | CCCCCCCCCC[n+]1ccn2ccccc21.[Br-] [IPC10, 1-Decylimidazo[1,2-a] pyridinium bromide] | 1.0081 g/mL | 19.53 µg/mL | 78.12 µg/mL | 0.5 | 0.25 | ADD (ΣFIC>0.5-≤1, additivity) | 0.75 | 27.20 mPa | 78.12 µg/mL | 312.5 µg/mL | –
